For 14 compounds, TGI results are on record in PubChem BioAssay (NCI).

Test in all cases: NCI tumour cell line growth inhibition, 48 h
The subject of assay [1] is HL-60(TB) leukemia.
For assay [2], the system named is PC-3 prostate.
For assay [3], the system named is SN12C renal.
The subject of assay [4] is UO-31 renal.
Assay [5] deals with 786-0 renal.
Assay [6] has as its system SNB-19 CNS.
Assay [7] concerns SF-539 CNS.
Assay [8] deals with BT-549 breast.
Assay [9] concerns CCRF-CEM leukemia.
Assay [10] relates to SF-295 CNS.
Assay [11] relates to A498 renal.

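Assay format: 96-well plates, 48-hour exposure. TGI denotes the concentration required for complete inhibition of growth.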 Bounds are passed on as bounds.

Turning to `COc1ccc(-c2c(C#N)c(S)n(NS(=O)(=O)c3ccccc3)c(=O)c2C#N)cc1`, the TGI in assay [1], in assay [2], in [3], in assay [4], in [5] and in [6] was > 100 µM each time. For the same compound, the TGI is 61.6 µM in [7], 46 µM in assay [8], > 100 µM in [9] and > 100 µM in assay [10].

On to `CC(=O)OC(C)(C)CCC(=O)[C@](C)(O)[C@H]1[C@H](O)C[C@@]2(C)[C@@H]3CCc4c(cc(OC5OC(CO)C(O)C(O)C5O)c(O)c4C)C3(C)C(=O)C[C@]12C` (stereo partly drawn), for which the TGI in [2], in [11], in assay [3], in assay [4], in [5] and in [6] was > 100 µM throughout. Further, the TGI in [7], in assay [8], in [9] and in assay [10] was > 100 µM throughout.

As for `CCOC(=O)/C=C(/C)Nc1nc2c(c(C(=O)OC)c1C#N)CCCC2`, the TGI in assay [1], in [2], in assay [11], in [3], in [4] and in assay [5] was > 100 µM in each case. In addition, the TGI in [6], in assay [8], in assay [9] and in assay [10] was > 100 µM throughout.

With `Cc1n(Cc2ccccc2)nc2sc(N)n[n+]12`, the TGI in [2], in assay [11], in assay [3], in [4], in [5] and in [6] was > 100 µM in each case. The TGI in assay [7], in assay [8], in [9] and in assay [10] was > 100 µM in each case.

As for `O=C(CC(Cl)=C(Cl)Cl)c1ccccc1`, the TGI was > 100 µM in assay [1]; > 100 µM in [2]; > 100 µM in assay [11]; > 100 µM in [4]; 48 µM in assay [5]; > 100 µM in assay [6]. Besides, the TGI is > 100 µM in assay [7], > 100 µM in [8], 30.4 µM in [9] and > 100 µM in assay [10].

In the case of `O=c1oc2c(Cl)cc(Cl)cc2cc1C1=CSC2=NCCN12`, the TGI in [1], in [2], in [3], in assay [4], in assay [5] and in assay [6] was > 100 µM each time. Moreover, the TGI in assay [7] was > 100 µM; in [8], 74.4 µM; in assay [9], > 100 µM; in assay [10], > 100 µM.

For `CCOC(=O)c1nc2ccc(C(F)(F)F)cc2nc1Oc1ccc(C(=O)OC)cc1`, the TGI in assay [1], in assay [2], in [11], in [4], in assay [5] and in assay [6] was > 100 µM each time. Also, the TGI in [7], in [8], in assay [9] and in assay [10] was > 100 µM throughout.

In the case of `CN1CC2CN(Cc3ccccc3)CCN2c2cccnc21` (stereo not drawn), the TGI in [1], in [2], in assay [11], in assay [4], in assay [5] and in assay [6] was > 100 µM in each case. For the same compound, the TGI in assay [7], in assay [8], in assay [9] and in [10] was > 100 µM in each case.

As for `CC(=O)Oc1ccc2c3c1O[C@H]1[C@H](O)CC[C@@]4(O)[C@@H](C2)N(C)CC[C@]314`, the TGI in assay [1], in assay [2], in assay [11], in [3], in assay [4] and in assay [5] was > 100 µM each time. The TGI in assay [6], in [7], in assay [8] and in [10] was > 100 µM throughout.

Regarding `Cc1ccc2c(/C=C/c3ccc(N(C)C)cc3)ccc(C(C)C)cc1-2`, the TGI was 88.3 µM in [1]; > 100 µM in assay [2]; > 100 µM in [11]; > 100 µM in assay [3]; > 100 µM in [4]; > 100 µM in assay [5]. For the same compound, the TGI in [8], in [9] and in assay [10] was > 100 µM throughout.

Turning to `C=C1C[C@H](O)[C@H](Br)C(C)(C)C12CCC(C)(Cl)C(Br)C2` (stereo partly drawn), the TGI in [1] is 13.4 µM; in assay [2], 1.77 µM; in assay [3] it was 14.8 µM; in assay [4] it was 17 µM; in [5] it was 15.4 µM; in assay [6] it was 10.4 µM. Further, the TGI in [7] stood at 42.2 µM; in assay [8], 18.5 µM; in assay [9], 75 µM; in [10], 8.13 µM.

For `CCOC(=O)c1cccc(NC(=O)CI)c1`, the TGI was determined as 2.39 µM in assay [2]; 4.72 µM in [11]; 0.731 µM in assay [3]; 0.43 µM in assay [4]; 0.307 µM in assay [5]; 9.39 µM in assay [6]. In addition, the TGI in assay [7] was 1.31 µM; in assay [8], 1.48 µM; in assay [10], 5.69 µM.

`CCOc1ccc(N/C(=C(/C(Cl)=C(/Cl)NC(C)(C)C)[N+](=O)[O-])n2nnc3ccccc32)cc1`: the TGI is 83.5 µM in [2]; > 100 µM in assay [11]; > 100 µM in assay [3]; > 100 µM in assay [4]; 36.7 µM in assay [5]; > 100 µM in assay [6]. Also, the TGI in assay [7] is 57.6 µM; in [8], 41.5 µM; in [9], > 100 µM; in [10], 78.8 µM.

As for `CCOC(=O)NN(C(=O)OCC)c1c(C)cc(C)cc1C`, the TGI in [1], in assay [2], in assay [11], in assay [3], in assay [4] and in assay [5] was > 100 µM each time. Further, the TGI in [6], in assay [7], in assay [8] and in assay [9] was > 100 µM each time.
